Test results taken from PMC12454493, “Insight on novel sulfamoylphenyl pyrazole derivatives as anticancer carbonic anhydrase inhibitors” (Molecular Diversity, 2024).

Columns and labels:
hCA IX = hCA IX (Homo sapiens, UniProt Q16790); assay: CA inhibitory activity, spectrophotometric p-NPA assay; type: biochemical; conditions: p-NPA substrate, pH 7.5, 25 °C, triplicate; read-out: IC50 (µM) ± SD hCA IX
SK-MEL-28 = assay: NCI-60 one-dose SRB screen (Melanoma); type: cell-based; conditions: Homo sapiens, single dose 10 µM, 48 h, read-out: Growth inhibition percent (GI %)
UACC-62 = assay: NCI-60 one-dose SRB screen (Melanoma); type: cell-based; conditions: Homo sapiens, single dose 10 µM, 48 h, read-out: Growth inhibition percent (GI %)
LOX IMVI = assay: NCI-60 one-dose SRB screen (Melanoma); type: cell-based; conditions: Homo sapiens, single dose 10 µM, 48 h, read-out: Growth inhibition percent (GI %)
MDA-MB-435 = assay: NCI-60 one-dose SRB screen (Melanoma); type: cell-based; conditions: Homo sapiens, single dose 10 µM, 48 h, read-out: Growth inhibition percent (GI %)
SK-MEL-2 = assay: NCI-60 one-dose SRB screen (Melanoma); type: cell-based; conditions: Homo sapiens, single dose 10 µM, 48 h, read-out: Growth inhibition percent (GI %)
MALME-3M = assay: NCI-60 one-dose SRB screen (Melanoma); type: cell-based; conditions: Homo sapiens, single dose 10 µM, 48 h, read-out: Growth inhibition percent (GI %)
M14 = assay: NCI-60 one-dose SRB screen (Melanoma); type: cell-based; conditions: Homo sapiens, single dose 10 µM, 48 h, read-out: Growth inhibition percent (GI %)
SK-MEL-5 = assay: NCI-60 one-dose SRB screen (Melanoma); type: cell-based; conditions: Homo sapiens, single dose 10 µM, 48 h, read-out: Growth inhibition percent (GI %)
UACC-257 = assay: NCI-60 one-dose SRB screen (Melanoma); type: cell-based; conditions: Homo sapiens, single dose 10 µM, 48 h, read-out: Growth inhibition percent (GI %)
TK-10 = assay: NCI-60 one-dose SRB screen (Renal Cancer); type: cell-based; conditions: Homo sapiens, single dose 10 µM, 48 h, read-out: Growth inhibition percent (GI %)
A498 = assay: NCI-60 one-dose SRB screen (Renal Cancer); type: cell-based; conditions: Homo sapiens, single dose 10 µM, 48 h, read-out: Growth inhibition percent (GI %)
RXF 393 = assay: NCI-60 one-dose SRB screen (Renal Cancer); type: cell-based; conditions: Homo sapiens, single dose 10 µM, 48 h, read-out: Growth inhibition percent (GI %)
CAKI-1 = assay: NCI-60 one-dose SRB screen (Renal Cancer); type: cell-based; conditions: Homo sapiens, single dose 10 µM, 48 h, read-out: Growth inhibition percent (GI %)
786-0 = assay: NCI-60 one-dose SRB screen (Renal Cancer); type: cell-based; conditions: Homo sapiens, single dose 10 µM, 48 h, read-out: Growth inhibition percent (GI %)
ACHN = assay: NCI-60 one-dose SRB screen (Renal Cancer); type: cell-based; conditions: Homo sapiens, single dose 10 µM, 48 h, read-out: Growth inhibition percent (GI %)
SN12C = assay: NCI-60 one-dose SRB screen (Renal Cancer); type: cell-based; conditions: Homo sapiens, single dose 10 µM, 48 h, read-out: Growth inhibition percent (GI %)
UO-31 = assay: NCI-60 one-dose SRB screen (Renal Cancer); type: cell-based; conditions: Homo sapiens, single dose 10 µM, 48 h, read-out: Growth inhibition percent (GI %)
EKVX = assay: NCI-60 one-dose SRB screen (Non-Small Cell Lung Cancer); type: cell-based; conditions: Homo sapiens, single dose 10 µM, 48 h, read-out: Growth inhibition percent (GI %)
HOP-62 = assay: as above; type: cell-based; conditions: Homo sapiens, single dose 10 µM, 48 h, read-out: Growth inhibition percent (GI %)
NCI-H322M = assay: as above; type: cell-based; conditions: Homo sapiens, single dose 10 µM, 48 h, read-out: Growth inhibition percent (GI %)
A549/ATCC = assay: as above; type: cell-based; conditions: Homo sapiens, single dose 10 µM, 48 h, read-out: Growth inhibition percent (GI %)
NCI-H226 = assay: as above; type: cell-based; conditions: Homo sapiens, single dose 10 µM, 48 h, read-out: Growth inhibition percent (GI %)
HOP-92 = assay: as above; type: cell-based; conditions: Homo sapiens, single dose 10 µM, 48 h, read-out: Growth inhibition percent (GI %)
NCI-H522 = assay: as above; type: cell-based; conditions: Homo sapiens, single dose 10 µM, 48 h, read-out: Growth inhibition percent (GI %)
NCI-H23 = assay: as above; type: cell-based; conditions: Homo sapiens, single dose 10 µM, 48 h, read-out: Growth inhibition percent (GI %)
NCI-H460 = assay: as above; type: cell-based; conditions: Homo sapiens, single dose 10 µM, 48 h, read-out: Growth inhibition percent (GI %)
T-47D = assay: NCI-60 one-dose SRB screen (Breast Cancer); type: cell-based; conditions: Homo sapiens, T47D, single dose 10 µM, 48 h, read-out: Growth inhibition percent (GI %)
MDA-MB-231/ATCC = assay: NCI-60 one-dose SRB screen (Breast Cancer); type: cell-based; conditions: Homo sapiens, single dose 10 µM, 48 h, read-out: Growth inhibition percent (GI %)
HS 578T = assay: NCI-60 one-dose SRB screen (Breast Cancer); type: cell-based; conditions: Homo sapiens, single dose 10 µM, 48 h, read-out: Growth inhibition percent (GI %)
BT-549 = assay: NCI-60 one-dose SRB screen (Breast Cancer); type: cell-based; conditions: Homo sapiens, single dose 10 µM, 48 h, read-out: Growth inhibition percent (GI %)
MDA-MB-468 = assay: NCI-60 one-dose SRB screen (Breast Cancer); type: cell-based; conditions: Homo sapiens, single dose 10 µM, 48 h, read-out: Growth inhibition percent (GI %)
MCF-7 = assay: NCI-60 one-dose SRB screen (Breast Cancer); type: cell-based; conditions: Homo sapiens, MCF7, single dose 10 µM, 48 h, read-out: Growth inhibition percent (GI %)
CCRF-CEM = assay: NCI-60 one-dose SRB screen (Leukemia); type: cell-based; conditions: Homo sapiens, single dose 10 µM, 48 h, read-out: Growth inhibition percent (GI %)
SNB-19 = assay: NCI-60 one-dose SRB screen (CNS Cancer); type: cell-based; conditions: Homo sapiens, single dose 10 µM, 48 h, read-out: Growth inhibition percent (GI %)
SF-539 = assay: NCI-60 one-dose SRB screen (CNS Cancer); type: cell-based; conditions: Homo sapiens, single dose 10 µM, 48 h, read-out: Growth inhibition percent (GI %)
U251 = assay: NCI-60 one-dose SRB screen (CNS Cancer); type: cell-based; conditions: Homo sapiens, U-251, single dose 10 µM, 48 h, read-out: Growth inhibition percent (GI %)
SF-295 = assay: NCI-60 one-dose SRB screen (CNS Cancer); type: cell-based; conditions: Homo sapiens, single dose 10 µM, 48 h, read-out: Growth inhibition percent (GI %)
SNB-75 = assay: NCI-60 one-dose SRB screen (CNS Cancer); type: cell-based; conditions: Homo sapiens, single dose 10 µM, 48 h, read-out: Growth inhibition percent (GI %)
SF-268 = assay: NCI-60 one-dose SRB screen (CNS Cancer); type: cell-based; conditions: Homo sapiens, single dose 10 µM, 48 h, read-out: Growth inhibition percent (GI %)
COLO 205 = assay: NCI-60 one-dose SRB screen (Colon Cancer); type: cell-based; conditions: Homo sapiens, single dose 10 µM, 48 h, read-out: Growth inhibition percent (GI %)
HCT-116 = assay: NCI-60 one-dose SRB screen (Colon Cancer); type: cell-based; conditions: Homo sapiens, single dose 10 µM, 48 h, read-out: Growth inhibition percent (GI %)
SW-620 = assay: NCI-60 one-dose SRB screen (Colon Cancer); type: cell-based; conditions: Homo sapiens, single dose 10 µM, 48 h, read-out: Growth inhibition percent (GI %)
KM12 = assay: NCI-60 one-dose SRB screen (Colon Cancer); type: cell-based; conditions: Homo sapiens, single dose 10 µM, 48 h, read-out: Growth inhibition percent (GI %)
HCC-2998 = assay: NCI-60 one-dose SRB screen (Colon Cancer); type: cell-based; conditions: Homo sapiens, single dose 10 µM, 48 h, read-out: Growth inhibition percent (GI %)
HCT-15 = assay: NCI-60 one-dose SRB screen (Colon Cancer); type: cell-based; conditions: Homo sapiens, single dose 10 µM, 48 h, read-out: Growth inhibition percent (GI %)
HT29 = assay: NCI-60 one-dose SRB screen (Colon Cancer); type: cell-based; conditions: Homo sapiens, HT-29, single dose 10 µM, 48 h, read-out: Growth inhibition percent (GI %)

## Cc1ccc(-c2nn(-c3ccc(S(N)(=O)=O)cc3)cc2C(=O)OCC(=O)Nc2nnc(S(N)(=O)=O)s2)cc1 [Compound 6b, 2-Oxo-2-[(5-sulfamoyl-1,3,4-thiadiazol-2-yl)amino] ethyl 1-(4-sulfamoylphenyl)-3-(p-tolyl)-1H-pyrazole-4-carboxylate]
hCA IX
  IC50: 0.339 ± 0.016 µM
SK-MEL-28
  inhibition at 10 µM: < 5%
UACC-62
  inhibition at 10 µM: 14.4%
LOX IMVI
  inhibition at 10 µM: 12.1%
MDA-MB-435
  inhibition at 10 µM: 5.8%
SK-MEL-2
  inhibition at 10 µM: < 5%
MALME-3M
  inhibition at 10 µM: 10.9%
M14
  inhibition at 10 µM: < 5%
SK-MEL-5
  inhibition at 10 µM: 23%
UACC-257
  inhibition at 10 µM: < 5%
TK-10
  inhibition at 10 µM: < 5%
A498
  inhibition at 10 µM: 7.37%
RXF 393
  inhibition at 10 µM: < 5%
CAKI-1
  inhibition at 10 µM: 28%
786-0
  inhibition at 10 µM: 5.95%
ACHN
  inhibition at 10 µM: < 5%
SN12C
  inhibition at 10 µM: < 5%
UO-31
  inhibition at 10 µM: 10.8%
EKVX
  inhibition at 10 µM: 7.25%
HOP-62
  inhibition at 10 µM: < 5%
NCI-H322M
  inhibition at 10 µM: < 5%
A549/ATCC
  inhibition at 10 µM: < 5%
NCI-H226
  inhibition at 10 µM: 13.3%
HOP-92
  inhibition at 10 µM: 22.2%
NCI-H522
  inhibition at 10 µM: < 5%
NCI-H23
  inhibition at 10 µM: 9.63%
NCI-H460
  inhibition at 10 µM: < 5%
T-47D
  inhibition at 10 µM: < 5%
MDA-MB-231/ATCC
  inhibition at 10 µM: 8.63%
HS 578T
  inhibition at 10 µM: < 5%
BT-549
  inhibition at 10 µM: < 5%
MDA-MB-468
  inhibition at 10 µM: < 5%
MCF-7
  inhibition at 10 µM: < 5%
CCRF-CEM
  inhibition at 10 µM: 6.03%
SNB-19
  inhibition at 10 µM: 5.72%
SF-539
  inhibition at 10 µM: 7.75%
U251
  inhibition at 10 µM: < 5%
SF-295
  inhibition at 10 µM: < 5%
SNB-75
  inhibition at 10 µM: 23.9%
SF-268
  inhibition at 10 µM: 9.87%
COLO 205
  inhibition at 10 µM: < 5%
HCT-116
  inhibition at 10 µM: < 5%
SW-620
  inhibition at 10 µM: < 5%
KM12
  inhibition at 10 µM: < 5%
HCC-2998
  inhibition at 10 µM: < 5%
HCT-15
  inhibition at 10 µM: < 5%
HT29
  inhibition at 10 µM: < 5%

## CCOC(=O)c1ccc(NC(=O)COC(=O)c2cn(-c3ccc(S(N)(=O)=O)cc3)nc2-c2ccc(OC)cc2)cc1 [Compound 5c, 2-[(4-(Ethoxycarbonyl)phenyl)amino]-2-oxoethyl 3-(4-methoxyphenyl)-1-(4-sulfamoylphenyl)-1H-pyrazole-4-carboxylate]
hCA IX
  IC50: 0.22 ± 0.01 µM
SK-MEL-28
  inhibition at 10 µM: 24.6%
UACC-62
  inhibition at 10 µM: 44.5%
LOX IMVI
  inhibition at 10 µM: 21.3%
MDA-MB-435
  inhibition at 10 µM: 27.3%
SK-MEL-2
  inhibition at 10 µM: 23.1%
MALME-3M
  inhibition at 10 µM: 21%
M14
  inhibition at 10 µM: 40.3%
SK-MEL-5
  inhibition at 10 µM: 34.9%
UACC-257
  inhibition at 10 µM: 25.4%
TK-10
  inhibition at 10 µM: 23.8%
A498
  inhibition at 10 µM: 23.2%
RXF 393
  inhibition at 10 µM: 55.3%
CAKI-1
  inhibition at 10 µM: 55.6%
786-0
  inhibition at 10 µM: 53.1%
ACHN
  inhibition at 10 µM: 21.3%
SN12C
  inhibition at 10 µM: 21.3%
UO-31
  inhibition at 10 µM: 38.5%
EKVX
  inhibition at 10 µM: 42.2%
HOP-62
  inhibition at 10 µM: 12%
NCI-H322M
  inhibition at 10 µM: 9.97%
A549/ATCC
  inhibition at 10 µM: 39.4%
NCI-H226
  inhibition at 10 µM: 26.7%
HOP-92
  inhibition at 10 µM: 26%
NCI-H522
  inhibition at 10 µM: 31%
NCI-H23
  inhibition at 10 µM: 17.5%
NCI-H460
  inhibition at 10 µM: 28.8%
T-47D
  inhibition at 10 µM: 46.2%
MDA-MB-231/ATCC
  inhibition at 10 µM: 18.8%
HS 578T
  inhibition at 10 µM: 31.3%
BT-549
  inhibition at 10 µM: 21.5%
MDA-MB-468
  inhibition at 10 µM: 40%
MCF-7
  inhibition at 10 µM: 48.8%
CCRF-CEM
  inhibition at 10 µM: 62.6%
SNB-19
  inhibition at 10 µM: 30.7%
SF-539
  inhibition at 10 µM: 38.7%
U251
  inhibition at 10 µM: 34.3%
SF-295
  inhibition at 10 µM: 32.7%
SNB-75
  inhibition at 10 µM: 49.3%
SF-268
  inhibition at 10 µM: 28.5%
COLO 205
  inhibition at 10 µM: 25.1%
HCT-116
  inhibition at 10 µM: 35.2%
SW-620
  inhibition at 10 µM: 7.9%
KM12
  inhibition at 10 µM: 26.2%
HCC-2998
  inhibition at 10 µM: < 5%
HCT-15
  inhibition at 10 µM: 48.5%
HT29
  inhibition at 10 µM: 17.3%
